Results: EP0305646B1, “3-Hydroxypyrid-4-ones and pharmaceutical compositions” (BRITISH TECHNOLOGY GROUP LIMITED, priority 1983, dated 1984)
Like-named read-outs stand apart in the source and are kept apart here.

Tests used:
Human transferrin = target: T1, Human transferrin (Homo sapiens, UniProt P02787); assay: Mobilisation of iron from 59Fe-loaded transferrin; assay type: biochemical; details: 59Fe transferrin 10^-5 M, compound 4 x 10^-3 M in tris HCl (0.1 M, pH 7.4); for Percentage of iron removed 4 hours: incubation 4 hours; for Percentage of iron removed 18 hours: incubation 18 hours
T1 construct: purchased Sigma
Description: Human transferrin (Sigma) was loaded with iron (III) by the method of Bates and Schlaback. J. Biol. Chem. (1973) 248, 3228. ^59Iron (III) transferrin (10^-5 M) was incubated with a 4 x 10^-3 M solution in tris HCl (0.1 M, pH 7.4) of one of various pyridones as indicated in Table 3 for periods of 4 hours and 18 hours. The solution was then dialysed against phosphate buffered saline for 24 hours. The ^59Fe remaining in the dialysis tube was then recorded. For comparative purposes, this procedure was repeated with desferrioxamine using incubation for both 4 hours and 18 hours and with EDTA using incubation for 4 hours only.
The results are shown in Table 3 in terms of the percentage of transferrin bound iron removed by the compound under test. It will be seen that the pyrid-4-one compounds are very effective at iron removal, as compared with desferrioxamine or EDTA, after only 4 hours.

Mice = assay: In vivo iron binding capacity: excretion of 59Fe in iron dextran loaded mice; details: 10 mg per mouse, control = 100%
Description: Mice were injected intraperitoneally with iron dextran (2 mg) at weekly intervals over a four week period. Two weeks after the final injection, the mice were injected via the tail vein with ^59Fe lactoferrin (human lactoferrin, 1 mg per injection 2 µCi). The mice were then caged individually. After a ten day period, 1-acetyl-3-hydroxypyrid-2-one was administered to groups of 8 mice at 10 mg per mouse either intraperitoneally or intragastrically (in each case 3 of the mice received only one dose whilst 5 received 2 doses at a 24 hour interval). The excretion of iron was recorded at either 12 or 24 hourly intervals over a three day period before and a two day period after administration of the compound. For comparative purposes, the procedure was repeated with a blank control and with desferrioxamine, also at 10 mg per mouse (the intraperitoneally treated mice receiving one dose of desferrioxamine and the intragastrically treated mice two doses at a 24 hour interval).
The results are shown in Table 4, being given on the basis of the control representing 100% excretion, and illustrate the particular advantage of the pyridones as compared with desferrioxamine for oral administration the levels of iron excreted on intragastric administration being higher for all the pyridones tested than for desferroxamine. […] However, this is not the case here, the large SD values being a consequence of the large range among the positive responses.

[1] = Affinity for iron (III) expressed as log Ksol; assay type: physicochemical; details: > 6.0 needed to remove iron from transferrin
Excerpt: In order to solubilise iron (III) hydroxide, log Ksol must be greater than 0 and in order to remove iron from transferrin, log Ksol should be in excess of 6.0. The log Ksol values for 1,2-dimethyl-3-hydroxypyrid-4-one, by way of example, is 9.5, thus comparing favourably with those of the bidentate hydroxamates at about 4.0, of catechols at about 8.0, of desferrioxamine at 6.0, and of diethylenetriamine penta-acetic acid (DTPA) at 2.0. Moreover, the ability of the compounds to remove iron efficiently has been confirmed both by in vitro test and also by in vivo tests in mice. It is particularly significant that these latter tests are successful whether the compound is given intraperitoneally or orally by stomach tube, the compounds generally either being stable under acidic conditions or being converted thereby to acid stable active compounds.

Horse spleen ferritin [2] = target: T2, Horse spleen ferritin (Equus caballus, UniProt P02791+Q8MIP0); details: cited from earlier work
T2 construct: Horse spleen ferritin (Sigma) was used without further purification; purchased Sigma; host or cells: horse spleen (tissue-derived)

Horse spleen ferritin [3] = target: T2, Horse spleen ferritin; assay: Mobilisation of iron from ferritin (dialysis against a pyridone solution); assay type: biochemical; details: ferritin 10^-6 M, pH 7.4, 3 x 10^-3 M pyridone
Description: Horse spleen ferritin (Sigma) was used without further purification and its iron content was estimated spectrophotometrically at 420 nm. The ferritin solution in phosphate buffered saline (Dulbecco-OXOID, 10^-6 M, pH 7.4) was enclosed in a Visking dialysis tube and dialysed against a 3 x 10^-3 M buffered solution of one of various pyridones as indicated in Table 2. The absorption spectrum of the resulting iron (III) complex in the dialysis solution was recorded after 6 and 24 hours. For comparative purposes, the procedure was repeated using a blank control.
The results are shown in Table 2 where the percentage of ferritin-bound iron removed by the compound under test is shown. For comparative purposes, results reported in the literature for similar tests with 1 x 10^-3 M desferrioxamine (Crichton et al., J. Inorganic Biochem., 1980, 13, 305) and with 6 x 10^-3 M LICAMS (Tufano et al., Biochem. Biophys. Acta, 1981, 668, 420) are also given in the Table. It will be seen that the pyridone compounds are able to remove iron effectively from ferritin in contrast with desferrioxamine and LICAMS (although the latter will remove iron in the presence of ascorbic acid such a mixture is very difficult to manage clinically). […]

[4] = Partition coefficient Kpart between n-octanol and aqueous tris hydrochloride, by spectrophotometry; details: n-octanol / tris hcl, pH 7.4
Description: The partition coefficient Kpart being the ratio (concentration of compound in n-octanol)/)concentration of compound in aqueous phase) on partition between n-octanol and aqueous tris hydrochloride (20 mM, pH 7.4), is measured by spectrophotometry at 20°C for various of the compounds of the previous Examples and for their 3:1 iron(III) complexes at (10^-4M by spectrophotometry. The solutions of the complexes are either produced by dissolving the pre-formed complex in the aqueous tris hydrochloride or are prepared in situ in the buffer by the admixture of a 3:1 molar ratio of the pyridone and ferric chloride, the pH thereafter being readjusted to 7.4 if necessary (the same product will be obtained in the buffer solution irrespective of whether the pyridone used is in a salt form or not). Acid washed glassware is used throughout and, following mixing of 5 ml of the 10^-4M aqueous solution with 5 ml n-octanol for 1 minute, the aqueous n-octanol mixture is centrifuged at 1,000 g for 30 seconds. The two resulting phases are separated for a concentration determination by spectrophotometry on each. For the free hydroxypyridones, the range 220-240 nm is used for concentration determinations whilst for the iron complexes, the range 340-360 nm is used.

T2 sequence (P02791 2-175 limits assumed): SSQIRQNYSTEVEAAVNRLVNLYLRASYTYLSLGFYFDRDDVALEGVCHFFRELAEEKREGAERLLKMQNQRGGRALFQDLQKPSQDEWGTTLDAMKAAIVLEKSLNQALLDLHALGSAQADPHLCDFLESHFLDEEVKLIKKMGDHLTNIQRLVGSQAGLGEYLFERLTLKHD
T2 sequence (Q8MIP0 whole entry): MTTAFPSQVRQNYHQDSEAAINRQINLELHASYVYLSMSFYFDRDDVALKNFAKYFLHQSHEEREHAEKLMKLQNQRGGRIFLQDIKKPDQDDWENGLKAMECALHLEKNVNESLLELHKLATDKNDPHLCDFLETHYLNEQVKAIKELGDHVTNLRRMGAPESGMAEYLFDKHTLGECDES
T1 sequence (P02787 20-698): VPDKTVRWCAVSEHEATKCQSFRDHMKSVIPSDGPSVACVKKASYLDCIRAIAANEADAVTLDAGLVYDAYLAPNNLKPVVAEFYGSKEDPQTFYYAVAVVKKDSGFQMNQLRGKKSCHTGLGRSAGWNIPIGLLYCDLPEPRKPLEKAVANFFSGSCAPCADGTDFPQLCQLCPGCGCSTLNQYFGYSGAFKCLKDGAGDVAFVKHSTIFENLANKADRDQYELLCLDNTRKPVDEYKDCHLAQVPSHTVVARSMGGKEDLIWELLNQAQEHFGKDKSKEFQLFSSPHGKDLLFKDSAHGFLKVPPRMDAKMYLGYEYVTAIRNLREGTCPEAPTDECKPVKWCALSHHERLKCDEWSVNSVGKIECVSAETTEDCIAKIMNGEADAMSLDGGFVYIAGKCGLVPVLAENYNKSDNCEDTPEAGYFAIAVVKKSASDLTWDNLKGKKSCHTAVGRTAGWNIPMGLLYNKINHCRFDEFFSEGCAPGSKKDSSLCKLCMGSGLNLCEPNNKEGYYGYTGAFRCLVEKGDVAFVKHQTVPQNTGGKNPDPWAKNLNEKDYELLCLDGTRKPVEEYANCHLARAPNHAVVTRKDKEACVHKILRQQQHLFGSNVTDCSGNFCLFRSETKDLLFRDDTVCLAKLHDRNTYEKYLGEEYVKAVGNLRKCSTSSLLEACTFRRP

Percentage of iron removed 4 hours (Human transferrin) [%] | Percentage of iron removed 18 hours (Human transferrin) [%] | Percentage of iron removed 6 hours (Horse spleen ferritin [3]) [%] | Percentage of iron removed 24 hours (Horse spleen ferritin [3]) [%] | Compound | Excretion of ^59Fe±SD percent (Mice; Intraperitoneal Administration) [%] | log Ksol [1] | further results
17 | 22 | – | – | CC(=O)N(O)CCCCCNC(=O)CCC(=O)N(O)CCCCCNC(=O)CCC(=O)N(O)CCCCCN [Desferrioxamine, reference compound] | 414 ± 100 | 6.0 | Excretion of ^59Fe±SD percent (Mice; Intragastric Administration): 88 ± 17%; Percentage of iron removed 6 hours (Horse spleen ferritin [2]; 1 mM desferrioxamine, literature (Crichton et al.)): 1.5%
– | – | – | – | O=C(O)CN(CCN(CC(=O)O)CC(=O)O)CCN(CC(=O)O)CC(=O)O [DTPA, diethylenetriamine penta-acetic acid] | – | 2.0 | –
– | – | – | – | O=C(NCCCCN(CCCNC(=O)c1cc(S(=O)(=O)O)cc(O)c1O)C(=O)c1cc(S(=O)(=O)O)cc(O)c1O)c1cc(S(=O)(=O)O)cc(O)c1O [LICAMS] | – | – | Percentage of iron removed 6 hours (Horse spleen ferritin [2]; 6 mM LICAMS + 12 mM ascorbic acid, literature (Tufano et al.)): 7%; Percentage of iron removed 6 hours (Horse spleen ferritin [2]; 6 mM LICAMS, literature (Tufano et al.)): 0%
– | – | 22 | 45 | COC(=O)CCn1ccc(=O)c(O)c1C [3-hydroxy-1-(2'-methoxycarbonylethyl)-2-methylpyrid-4-one] | – | – | –
93 | 97 | 25 | 49 | Cn1cc(O)c(=O)cc1CO [3-hydroxy-6-hydroxymethyl-1-methylpyrid-4-one] | – | – | logD [4]: -1.52
94 | 96 | 31 | 49 | Cc1c(O)c(=O)ccn1CCO [3-hydroxy-1-(2'-hydroxyethyl)-2-methylpyrid-4-one] | 170 ± 49 | – | –
– | – | – | – | Cc1c(O)c(=O)ccn1C [1,2-dimethyl-3-hydroxypyrid-4-one] | – | 9.5 | –
– | – | – | – | Cc1c(O)c(=O)ccn1CCCCCO [3-hydroxy-1-(5'-hydroxypentyl)-2-methylpyrid-4-one] | 149 ± 59 | – | Excretion of ^59Fe±SD percent (Mice; Intragastric Administration): 111 ± 22%

Compound | Percentage of iron removed 4 hours (Human transferrin) [%] | Percentage of iron removed 18 hours (Human transferrin) [%] | Percentage of iron removed 6 hours (Horse spleen ferritin [3]) [%] | Percentage of iron removed 24 hours (Horse spleen ferritin [3]) [%] | Excretion of ^59Fe±SD percent (Mice; Intraperitoneal Administration) [%] | log Ksol [1] | further results
O=C(O)CN(CCN(CC(=O)O)CC(=O)O)CC(=O)O [EDTA, ethylenediamine tetra-acetic acid, reference compound] | 27 | 67 | – | – | – | – | –
